# Legend:
# lysosomes = assay: Live-cell photo-uncaging lysosomes imaging, SRS/fluorescence co-localization; format: cell-based
# Text: (§1) An integrated laser (picoEMERALD, Applied Physics and Electronics, Inc.) was used as a light source for both pump and Stokes beams. It produces 2 ps pump (tunable from 770 nm - 990 nm, bandwidth 0.5 nm, spectral bandwidth ~ 7 cm-1 ) and Stokes (1031.2 nm, spectral bandwidth 10 cm-1 ) beams with 80 MHz repetition rate. Stokes beam is modulated at 20 MHz by an internal electro-optic modulator. The spatially and temporally overlapped pump and Stokes beams are introduced into an inverted multiphoton laser scanning microscopy (FV3000, Olympus), and then focused onto the sample by a 25X water objective (XLPLN25XWMP, 1.05 N.A., Olympus). Transmitted pump and Stokes beams are collected by a high N.A. condenser lens (oil immersion, 1.4 N.A., Olympus) and pass through a bandpass filter (893/209 BrightLine, 25 mm, AVR Optics) to filter out Stokes beam. A large area (10×10 mm) Si photodiode (S3590-09, Hamamatsu) is used to measure the remaining pump beam intensity. 64 V DC voltage was used on the photodiode to increase saturation threshold and reduce response time. The output current is terminated by a 50 Ω terminator and pre-filtered by an 19.2-23.6-MHz band-pass filter (BBP-21.4+, Mini-Circuits) to reduce laser and scanning noise. The signal is then demodulated by a lock-in amplifier (SR844, Stanford Research Systems) at the modulation frequency. The in-phase X output is fed back to the Olympus IO interface box (FV30-ANALOG) of the microscope. Image acquisition speed is limited by 30 µs time constant set for the lock-in amplifier. Correspondingly, we use 80 µs pixel dwell time, which gives a speed of 8.5 s frame-1 for a 320-by-320-pixel field of view. Laser powers are monitored through image acquisition by an internal power meter and power fluctuation are controlled within 5% by the laser system. 16-bit grey scale images are acquired by Fluoview software. SRS spectra were acquired by fixing the Stokes beam at 1031.2 nm and scanning the pump beam through the designated wavelength range point by point. 10 mM EdU (H2O) sample was used as a standard to give RIE of different probes. Fluorescence images were collected using the same Olympus FV3000 confocal microscope with CW laser excitation (405, 488, 561 and 640 nm, Coherent OBIS LX laser) and standard bandpass filter sets. The correlation coefficients (Pearson’s R value) between SRS images and fluorescence images were calculated using ‘Coloc 2’ tool of ImageJ.
# Lysosomes imaging: Cells were incubated in 30 µM Me-Lyso (13) with complete DMEM medium for 2 hours in the incubator. Cells were washed with PBS three times before imaging. For colocalization, 0.4 x LysoView™ 488 (Biotium, #70067) was used to stain cells for 30 minutes. For photo-uncaging, 405 nm laser was used to scan the selected field of view for 2 minutes (1.6 mW).
# [1] = Spontaneous Raman / hyperspectral SRS spectroscopy of probes and uncaged alkynes; format: physicochemical; settings: for Raman Peak: cell silent region, model systems; for RIE (relative Raman intensity to EdU): 10 mM EdU (H2O) as standard
# Text: as §1
# To perform spontaneous Raman spectroscopy, spontaneous Raman spectra were acquired using an upright confocal Raman spectrometer (Horiba Raman microscope; Xplora plus). A 532 nm YAG laser is used to illuminate the sample with a power of 12 mW on sample through a 100 x, N.A. 0.9 objective (MPLANN; Olympus) with 100 µm slit and 500 µm hole. Spectro/Raman shift center was set to be 2000.04 cm-1 . With a 1200 grating, Raman shift ranges from 690.81 cm-1 to 3141.49 cm-1 was acquired to cover whole biological relevant Raman peaks. The acquired spectra were processed by the LabSpec 6 software for baseline correction.
# Cyclopropenone caging has been previously adopted for photoactivation and subsequent biorthogonal labeling of fluorophores in fluorescence microscopy. […] Herein the alkyne Raman signal generation from photo-DIBO light-activation was first measured (FIG. 1A). […] Compared to 5-ethynyl-2′-deoxyuridine (EdU), the well-adopted benchmark for Raman intensity quantification, the relative Raman intensity to EdU (RIE) of the strained alkyne DIBO is only 1.8 (Table 1). […] Given this, it is reasoned that diphenylcyclopropenone (i.e. cyclopropenone-caged 1-yne, 1-cyclo, 1, FIG. 1A) should be a better photoactivatable Raman scaffold with higher Raman sensitivity after uncaging. Indeed, UV-uncaging of 1-cyclo (1), which started from a similarly weak Raman peak at 1860 cm^-1 from photo-DIBO, produced an intense sharp peak for 1-yne (2) at 2226 cm^-1 (FIG. 1B, dashed black vs solid blue spectra) with an improved RIE values to about 4
# [2] = UV-Vis absorption spectra; format: physicochemical; settings: 20 uM in DMSO
# Experimental: UV-Vis absorption spectra were recorded on a Varian Cary 50 UV-Vis Spectrophotometer (Agilent).
# lipid droplets = assay: Live-cell photo-uncaging lipid droplets imaging, SRS/fluorescence co-localization; format: cell-based; settings: live HeLa cells, SRS vs Lipid spot 610
# Text: as §1
# Lipid droplets imaging by Me-LD (15): Cells were incubated in 20 µM Me-LD (15) with complete DMEM medium for 30 minutes in the incubator. Cells were washed with PBS three times before imaging. For colocalization, 0.5 x LipidSpot™ 610 (Biotium, #70069) was used to stain cells for 20 minutes. For photo-uncaging, 405 nm laser was used to scan the selected field of view for 2 minutes (1.6 mW).
# Lipid droplets imaging by Cyclo-LD (17): Cells were washed with PBS for three times before labeling. Cells were then incubated in 20 µM Cyclo-LD (17) with PBS for 30 minutes in the incubator. Cells were washed with PBS three times before imaging. For colocalization, 0.5 x LipidSpot™ 610 (Biotium, #70069) was used to stain cells for 20 minutes. For photo-uncaging, 405 nm laser (1.6 mW) was used to scan the selected field of view for 2 minutes.
# endoplasmic reticulum = assay: Live-cell photo-uncaging ER imaging, SRS/fluorescence co-localization; format: cell-based; settings: live HeLa cells
# Text: as §1
# ER imaging: Cells were incubated in 40 µM Me-ER (14) with complete DMEM medium for 2 hours in the incubator. Cells were washed with PBS three times before imaging. For colocalization, 0.5 µM ER-Tracker™ Red (Invitrogen, E34250) was used to stain cells for 1 hour. For photo-uncaging, 405 nm laser was used to scan the selected field of view for 2 minutes (1.6 mW).
# [3] = Photoactivation (UV-uncaging) monitored by time-series spontaneous Raman spectra; format: physicochemical
# Experimental: The 365 nm UV light used to activate cyclopropenones comes from a UV handlamp (Analytik Jena UVP EL Series Lamp, UVLS-24, 4 Watt, 2 UV 254/365 nm, typically used for TLC monitoring in organic synthesis). The power of 365 nm UV of this handlamp was measured to be 15 mW/cm2 on samples.
# Next, the photo-uncaging kinetics for both 1-cyclo (1) and 2-cyclo (3) were compared. […] With 365 nm lamp illumination, the characteristic peaks of cyclopropenones (~1860 cm^-1) continue to drop while the alkyne peaks (2226 cm^-1) gradually increase for both molecules (FIG. 1D). […] The progression of the UV-activation reactions could also be confirmed by the change in the corresponding absorption spectra (FIG. 6).
# [4] = (HP)LC-MS for assessing the stability of cyclopropenone probes in physiological condition; format: physicochemical; settings: 10 mM cysteine (PBS), 37° C., HPLC trace
# Experimental: The assessed probe was first dissolved in DMSO and later diluted in 10 mM cysteine (Sigma, 168149, dissolved in PBS) solution or DMEM (Corning, 35-015-CV) medium. Analytical HPLC coupled with mass spectrometry (LC-MS) was performed on Agilent 1290 infinity LC system using ZORBAX RRHD Eclipse Plus C18, 95 Å, 2.1 x 50 mm, 1.8 µm column with Agilent 6140 Series Quadrupole LCMS / LC-MS / MSD / Mass Spectrometer System. The mobile phase is water (0.1% AcOH) and acetonitrile with running method of gradient 5%-95% acetonitrile (1 ml/min, 4 min for total running time). The mass spectrometry detection region ranges from 100 to 800 AMU. The data shown in the main figures and supplementary figures are the absorption (280.8 nm) intensity traces.
# It was hypothesized that this was likely because the cyclopropenone structures are susceptible to nucleophilic attack, leading to ring-opened α,β-unsaturated acids derivatives. Cysteines, glutathione, and other biological thiols are strong nucleophiles and could easily deactivate cyclopropenones. The stability of 1-cyclo (1) in 10 mM cysteine phosphate-buffered saline (PBS) at 37° C. was therefore tested, mimicking physiological conditions.
# live HeLa cells = assay: SRS imaging of live HeLa cells incubated with unmethylated probes before and after 405 nm illumination; format: cell-based; settings: 20 µM, 30 minutes of labeling; 2226 cm^-1 channel after 405 nm
# Experimental: FIG. 7 provides exemplary results from SRS imaging of live HeLa cells incubated with 1-cyclo (1, 20 µM, 30 minutes of labeling, top) and Cyclo-Mito (7, 20 µM, 30 minutes of labeling, bottom) at the CH3 (2940 cm^-1) channel, and the expected uncaged alkyne channel (2226 cm^-1) before and after 405 nm illumination. Scale bar: 10 µm.
# An integrated laser (picoEMERALD, Applied Physics and Electronics, Inc.) was used as a light source for both pump and Stokes beams. It produces 2 ps pump (tunable from 770 nm - 990 nm, bandwidth 0.5 nm, spectral bandwidth ~ 7 cm-1 ) and Stokes (1031.2 nm, spectral bandwidth 10 cm-1 ) beams with 80 MHz repetition rate. Stokes beam is modulated at 20 MHz by an internal electro-optic modulator. […] Laser powers are monitored through image acquisition by an internal power meter and power fluctuation are controlled within 5% by the laser system. […] Fluorescence images were collected using the same Olympus FV3000 confocal microscope with CW laser excitation (405, 488, 561 and 640 nm, Coherent OBIS LX laser) and standard bandpass filter sets. The correlation coefficients (Pearson’s R value) between SRS images and fluorescence images were calculated using ‘Coloc 2’ tool of ImageJ.
# [5] = live HeLa cells, SRS vs Lysoview 488, Fl/2205 cm^-1 channel
# [6] = SRS vs ER tracker red, Fl/2205 cm^-1 channel
molecule,measurement,setting,value
Cc1cc(C)c(-c2c(-c3c(C)cc(OCCN(C)C)cc3C)c2=O)c(C)c1 [Me-Lyso (13)],"correlation coefficient (Pearson's R value), set 1",lysosomes; [5],0.60
same,"correlation coefficient (Pearson's R value), set 2",lysosomes; [5],0.67
same,"correlation coefficient (Pearson's R value), set 3",lysosomes; [5],0.62
same,lysosomes targeting (co-localization),lysosomes; live cells co-labeled with Lysoview 488,desired co-localization
"C(#Cc1ccccc1)c1ccccc1 [1-yne (2), diphenylacetylene]",Raman Peak,[1],2226 cm⁻¹
same,Abs,[2],283 nm
same,εabs,[2],32300 M⁻¹ cm⁻¹
"dibenzocyclooctynes [DIBO, reference compound]",RIE (relative Raman intensity to EdU),[1],1.8
same,Raman Peak,[1],2171 cm⁻¹
same,Abs,[2],323 nm
same,εabs,[2],24200 M⁻¹ cm⁻¹
"O=c1c(-c2ccccc2)c1-c1ccc(OCCOCCOCCCCCCCl)cc1 [Cyclo-LD (17), 2-(4-(2-(2-((6-chlorohexyl)oxy)ethoxy)ethoxy)phenyl)-3-phenylcycloprop-2-en-1-one]","correlation coefficient (Pearson's R value), set 1",lipid droplets; Fl/2226 cm^-1 channel,0.50
same,"correlation coefficient (Pearson's R value), set 2",lipid droplets; Fl/2226 cm^-1 channel,0.76
Cc1ccc(S(=O)(=O)NCCCOc2cc(C)c(-c3c(-c4c(C)cc(C)cc4C)c3=O)c(C)c2)cc1 [Me-ER (14)],"targeting, photoactivation and imaging performances",endoplasmic reticulum,highly specific targeting
same,"correlation coefficient (Pearson's R value), set 1",endoplasmic reticulum; [6],0.86
same,"correlation coefficient (Pearson's R value), set 2",endoplasmic reticulum; [6],0.80
same,"correlation coefficient (Pearson's R value), set 3",endoplasmic reticulum; [6],0.90
"O=c1c(C#Cc2ccccc2)c1-c1ccccc1 [2-cyclo (3), 2-phenyl-3-(phenylethynyl)cycloprop-2-en-1-one]",RIE (relative Raman intensity to EdU),[1],7.5
same,Raman Peak,[1],2218 cm⁻¹
same,Abs,[2],324 nm
same,εabs,[2],32400 M⁻¹ cm⁻¹
same,uncaging kinetics k,"[3]; 365 nm illumination (15 mW/cm^2), increase of alkyne peak 2226 cm^-1",0.020 s⁻¹
same,"uncaging kinetics, fold faster than 1-cyclo (1)",[3]; 365 nm lamp illumination,about 5 fold
"O=c1c(C#Cc2ccccc2)c(C#Cc2ccccc2)c1=O [3-cyclo (5), 3,4-Bis(phenylethynyl)-3-cyclobutene-1,2-dione]",RIE (relative Raman intensity to EdU),[1],13
same,Raman Peak,[1],2194 cm⁻¹
same,Abs,[2],371 nm
same,εabs,[2],25500 M⁻¹ cm⁻¹
Cc1cc(C)c(-c2c(-c3c(C)cc(O)cc3C)c2=O)c(C)c1 [compound 8],time stable to cysteine,[4],≥ 24 h
O=c1c(-c2ccccc2)c1-c1ccc(OCCC[P+](c2ccccc2)(c2ccccc2)c2ccccc2)cc1.[Br-] [Cyclo-Mito (7)],uncaging signals in labeled live cells,live HeLa cells,did not produce any observable uncaging signals
Cc1cc(C)c(-c2c(-c3c(C)cc(OCCOCCOCCCCCCCl)cc3C)c2=O)c(C)c1 [Me-LD (15)],"correlation coefficient (Pearson's R value), set 1",lipid droplets; Fl/2205 cm^-1 channel,0.54
same,"correlation coefficient (Pearson's R value), set 2",lipid droplets; Fl/2205 cm^-1 channel,0.54
same,"correlation coefficient (Pearson's R value), set 3",lipid droplets; Fl/2205 cm^-1 channel,0.50
